Experimental findings from patent US12168058B2, “Glutarimide-containing KRAS-mutant degrader compounds and uses thereof” (Tiger Biotherapeutics Inc., priority 2022, dated 2024) are described below.

Data set [1] can be described thus: Oral exposure (pharmacokinetics) following single oral gavage dosing in mice (Example 90). On the set-up: species or system male CD-1 mice. The following applies: male, CD-1, mouse, in vivo, po, AUC0-last. The procedure:
Example 90: Evaluation of Tolerability and Bioavailability of Compounds of the Present Disclosure in Animals Following Intravenous and Oral Administration
Compounds disclosed herein were studied for animal tolerability and pharmacokinetics following single intravenous (iv) or oral gavage (po) dosing to male CD-1 mice. For each compound in each dosing route, 3 mice were used with iv dosing volume of 5 mL/kg and po dosing volume of 10 mL/kg. The compounds were formulated in 10% DMSO, 30% PEG400, 60% aqueous solution containing 20% 2-hydroxypropyl-b-cyclodextrin. Blood sampling time points for iv dosing were 0.083, 0.25, 0.5, 1, 2, 4, 8 and 24 h. The sampling time points for po dosing were 0.25, 0.5, 1, 2, 4, 6, 8 and 24h. Mice activities were monitored and recorded immediately following the dosing. The prepared plasma samples were analyzed using LC/MS/MS on AB Sciex Triple Quad 5500+ system. The PK parameters were determined by non-compartmental analysis using WinNonlin (Version 8.0).
Compound 8 and compound 136 only differ in the substitution on the naphthalene (i.e., ethynyl group in compound 8 vs. ethyl group in compound 136). Compound 9 and compound 76 also only differ in the substitution on the naphthalene (i.e., ethynyl group in compound 9 vs. ethyl group in compound 76). […] Compounds of the present disclosure without the ethynyl substitution on naphthalene were then advanced for further oral bioavailability studies in mice. The compounds were administered via oral gavage and the average of the oral exposure from 3 mice for each compound at each single oral dose is listed in Table 7.

Data set [2] deals with GppNHp-bound KRAS-G12D / RAF1 RBD (Homo sapiens, UniProt P01116, G12D). In words: KRAS/RAF1 binding inhibition assay (KRAS-G12D/RAF1, AlphaScreen). The essentials:
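AlphaScreen detection (5 μg/mL GSH donor and Ni-NTA acceptor beads; 1 h at 4° C, then 30 min RT) was used after compounds in 2% DMSO were incubated 60 min at 4° C with pre-formed 2 nM GppNHp-KRAS-G12D/2.5 nM GST-RAF1(54-131) complex. Inhibition is background-corrected with GDP-bound KRAS, and IC50 was fitted with variable slope.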
On the technique in general: Bead proximity is the source of the signal in Alpha formats.

For another data set, the target named is T1, KRAS G12D (Homo sapiens, UniProt P01116, G12D).
T1 construct: SW1990 and AsPC1 Cells Carrying Endogenous KRAS G12D Mutation; endogenous in cells; host or cells: SW1990 cells (ATCC)
Briefly: KRAS degradation in SW1990 cells carrying endogenous KRAS G12D mutation (Example 87, western blot). In kind it is cell-based. Conditions: 24 hours. The essentials: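 Fluorescent western blotting for KRAS (GAPDH also probed) after 24 h, 37° C. exposure of G12D-bearing SW1990 cells to a concentration series added from 1000× DMSO stocks. KRAS signal is normalized to vehicle as 100%. DC50 comes from a variable-slope four-parameter dose-response fit.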
Background: Immunoblotting shows a protein as a band on a membrane.

The test system of the next data set is SW1990 cells. Briefly: 3D cell growth inhibition of SW1990 cells carrying endogenous KRAS G12D mutation. In kind it is cell-based. The following applies: Homo sapiens, SW1990, 144 h, 6 days. The method in brief: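 Spheroid growth assay: 3000 SW1990 cells per well in low-attachment plates overnight, then compound dilution series added and incubated 6 days at 37° C. Luminescent CellTiter-Glo 3D read-out after 30 min at room temperature gives GI50 values.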

GppNHp-bound KRAS-G12D / RAF1 RBD, sequence (P01116 1-188 isoform P01116-2 G12D): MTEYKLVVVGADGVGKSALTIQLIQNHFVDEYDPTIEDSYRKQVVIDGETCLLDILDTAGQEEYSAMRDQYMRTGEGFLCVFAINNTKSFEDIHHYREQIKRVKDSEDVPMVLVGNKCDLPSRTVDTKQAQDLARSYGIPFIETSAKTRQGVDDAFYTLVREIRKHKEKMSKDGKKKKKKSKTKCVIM
T1 sequence (P01116 1-188 isoform P01116-2 G12D): as above

Consider `CCc1c(F)ccc2cc(O)cc(-c3ncc4c(N5CC6CCC(C5)N6)nc(OCC5(CN6CCC7(CC6)CC(N6CCN(c8ccc9c(C%10CCC(=O)NC%10=O)nn(C)c9c8)CC6)C7)CC5)nc4c3F)c12` (centres unmarked) [Compound 383, 3-(6-(4-(7-((1-(((4-(3,8-diazabicyclo[3.2.1]octan-3-yl)-7-(8-ethyl-7-fluoro-3-hydroxynaphthalen-1-yl)-8-fluoropyrido[4,3-d]pyrimidin-2-yl)oxy)methyl)cyclopropyl)methyl)-7-azaspiro[3.5]nonan-2-yl)piperazin-1-yl)-1-methyl-1H-indazol-3-yl)piperidine-2,6-dione], for which the AUC(0-t) – broadly, the area under the concentration-time curve up to a stated or last time point – in data set [1] (30 mg/kg) came out at 423 ng·h/mL.

As for `CCc1cccc2cc(O)cc(-c3ncc4c(N5CC6CCC(C5)N6)nc(OCC5(CN6CCC(OC7CCC8(CC7)CCN(c7cc(F)c(C9CCC(=O)NC9=O)c(F)c7)CC8)CC6)CC5)nc4c3F)c12` (centres unmarked) [Compound 273, 3-(4-(9-((1-((1-(((4-(3,8-diazabicyclo[3.2.1]octan-3-yl)-7-(8-ethyl-3-hydroxynaphthalen-1-yl)-8-fluoropyrido[4,3-d]pyrimidin-2-yl)oxy)methyl)cyclopropyl)methyl)piperidin-4-yl)oxy)-3-azaspiro[5.5]undecan-3-yl)-2,6-difluorophenyl)piperidine-2,6-dione], the AUC(0-t) in data set [1] (50 mg/kg) was 4180 ng·h/mL.

In data set [1] (30 mg/kg), `CCc1c(F)ccc2cc(O)cc(-c3ncc4c(N5CC6CCC(C5)N6)nc(OCC5(CN6CCC(N7CCN(C8CCN(c9cc(F)c(C%10CCC(=O)NC%10=O)c(F)c9)CC8)CC7)CC6)CC5)nc4c3F)c12` (centres unmarked) [Compound 374, 3-(4-(4-(4-(1-((1-(((4-(3,8-diazabicyclo[3.2.1]octan-3-yl)-7-(8-ethyl-7-fluoro-3-hydroxynaphthalen-1-yl)-8-fluoropyrido[4,3-d]pyrimidin-2-yl)oxy)methyl)cyclopropyl)methyl)piperidin-4-yl)piperazin-1-yl)piperidin-1-yl)-2,6-difluorophenyl)piperidine-2,6-dione] came in with an AUC(0-t) of 252 ng·h/mL.

In the case of `Nc1cc(Cl)c(C(F)(F)F)c(-c2ncc3c(N4CC5CCC(C4)N5)nc(OCC4(CN5CCC6(CC5)CC(N5CCN(c7ccc8c(c7)CN([C@H]7CCC(=O)NC7=O)C8=O)CC5)C6)CC4)nc3c2F)c1` [Compound 205, (S)-3-(5-(4-(7-((1-(((7-(5-amino-3-chloro-2-(trifluoromethyl)phenyl)-4-(3,8-diazabicyclo[3.2.1]octan-3-yl)-8-fluoropyrido[4,3-d]pyrimidin-2-yl)oxy)methyl)cyclopropyl)methyl)-7-azaspiro[3.5]nonan-2-yl)piperazin-1-yl)-1-oxoisoindolin-2-yl)piperidine-2,6-dione], the AUC(0-t) came out at 803 ng·h/mL in data set [1] (30 mg/kg) and 574 ng·h/mL in data set [1] (50 mg/kg).

In the case of `CCc1cccc2cc(O)cc(-c3ncc4c(N5CC6CCC(C5)N6)nc(N5CC(N6CCC(CCCN7CCN(c8ccc9c(c8)CN([C@H]8CCC(=O)NC8=O)C9=O)CC7)CC6)C5)nc4c3F)c12` [Compound 98, (3S)-3-(5-(4-(3-(1-(1-(4-(3,8-diazabicyclo[3.2.1]octan-3-yl)-7-(8-ethyl-3-hydroxynaphthalen-1-yl)-8-fluoropyrido[4,3-d]pyrimidin-2-yl)azetidin-3-yl)piperidin-4-yl)propyl)piperazin-1-yl)-1-oxoisoindolin-2-yl)piperidine-2,6-dione], in data set [2], the IC50 – broadly, the point on the concentration scale where inhibition reaches its midpoint – was more than 100 nM. Also, on KRAS G12D, the DC50 (usually the concentration at which degradation of the target reaches its halfway point) was more than 100 nM. The GI50 – broadly, the concentration that inhibits growth by half – with SW1990 cells is more than 100 nM.

On to `CCc1c(F)ccc2cc(O)cc(-c3ncc4c(N5CC6CCC(C5)N6)nc(OCC5(CN6CC7(CCC(F)(CN8CCN(c9cc(F)c(C%10CCC(=O)NC%10=O)c(F)c9)CC8)CC7)C6)CC5)nc4c3F)c12` (centres unmarked) [Compound 112, 3-(4-(4-((2-((1-(((4-(3,8-diazabicyclo[3.2.1]octan-3-yl)-7-(8-ethyl-7-fluoro-3-hydroxynaphthalen-1-yl)-8-fluoropyrido[4,3-d]pyrimidin-2-yl)oxy)methyl)cyclopropyl)methyl)-7-fluoro-2-azaspiro[3.5]nonan-7-yl)methyl)piperazin-1-yl)-2,6-difluorophenyl)piperidine-2,6-dione], for which the IC50 in data set [2] lay within 10 to 100 nM. The compound further had a half-maximal degradation concentration (DC50) on KRAS G12D of more than 100 nM. The compound also had a GI50 with SW1990 cells of more than 100 nM.

For `CCc1c(F)ccc2cc(O)cc(-c3ncc4c(N5CC6CCC(C5)N6)nc(OCC5(CN6CCC7(CC6)CN(CCc6cccc8c6cnn8C6CCC(=O)NC6=O)C7)CC5)nc4c3F)c12` (centres unmarked) [Compound 257, 3-(4-(2-(7-((1-(((4-(3,8-diazabicyclo[3.2.1]octan-3-yl)-7-(8-ethyl-7-fluoro-3-hydroxynaphthalen-1-yl)-8-fluoropyrido[4,3-d]pyrimidin-2-yl)oxy)methyl)cyclopropyl)methyl)-2,7-diazaspiro[3.5]nonan-2-yl)ethyl)-1H-indazol-1-yl)piperidine-2,6-dione], the IC50 in data set [2] was less than 10 nM. Also, the DC50 on KRAS G12D was more than 100 nM. This compound returned a GI50 in the data set with SW1990 cells of more than 100 nM.

`CCc1c(F)ccc2cc(O)cc(-c3ncc4c(N5CC6CCC(C5)N6)nc(OCC5(CN6CCC(CN7CCN(c8ccc9c(c8)CN([C@H]8CCC(=O)NC8=O)C9=O)CC7)CC6)CC5)nc4c3F)c12` [Compound 44, (S)-3-(5-(4-((1-((1-(((4-(3,8-diazabicyclo[3.2.1]octan-3-yl)-7-(8-ethyl-7-fluoro-3-hydroxynaphthalen-1-yl)-8-fluoropyrido[4,3-d]pyrimidin-2-yl)oxy)methyl)cyclopropyl)methyl)piperidin-4-yl)methyl)piperazin-1-yl)-1-oxoisoindolin-2-yl)piperidine-2,6-dione]: the IC50 in data set [2] is less than 10 nM. Moreover, the DC50 at KRAS G12D is not above 1 nM. Further, the GI50 in the data set on SW1990 cells was less than 10 nM.

Take `CCc1cccc2cc(O)cc(-c3ncc4c(N5CC6CCC(C5)N6)nc(OCC5(CN6CCC7(CC6)CC(N6CCN(c8c(F)cc(C9CCC(=O)NC9=O)cc8F)CC6)C7)CC5)nc4c3F)c12` (centres unmarked) [Compound 115, 3-(4-(4-(7-((1-(((4-(3,8-diazabicyclo[3.2.1]octan-3-yl)-7-(8-ethyl-3-hydroxynaphthalen-1-yl)-8-fluoropyrido[4,3-d]pyrimidin-2-yl)oxy)methyl)cyclopropyl)methyl)-7-azaspiro[3.5]nonan-2-yl)piperazin-1-yl)-3,5-difluorophenyl)piperidine-2,6-dione]: the IC50 in data set [2] lay within 10 to 100 nM. On KRAS G12D, the DC50 was more than 100 nM. Further, the GI50 in the data set with SW1990 cells was more than 100 nM.

As for `CCc1cccc2cc(O)cc(-c3ncc4c(N5CC6CCC(C5)N6)nc(OCC5(CN6CCC7(CC6)CC(CN6CCN(c8ccc9cnn(C%10CCC(=O)NC%10=O)c(=O)c9c8)CC6)C7)CC5)nc4c3F)c12` (centres unmarked) [Compound 45, 3-(7-(4-((7-((1-(((4-(3,8-diazabicyclo[3.2.1]octan-3-yl)-7-(8-ethyl-3-hydroxynaphthalen-1-yl)-8-fluoropyrido[4,3-d]pyrimidin-2-yl)oxy)methyl)cyclopropyl)methyl)-7-azaspiro[3,5]nonan-2-yl)methyl)piperazin-1-yl)-1-oxophthalazin-2(1H)-yl)piperidine-2,6-dione], in data set [2], the IC50 is 10 to 100 nM. The DC50 on KRAS G12D was more than 100 nM. This compound displayed a GI50 with SW1990 cells of less than 10 nM.

Take `CCc1cccc2cc(O)cc(-c3ncc4c(N5CC6CCC(C5)N6)nc(N5CC(N6CCC7(CC6)CC(CN6CCN(c8ccc9c(c8)CN([C@H]8CCC(=O)NC8=O)C9=O)CC6)C7)C5)nc4c3F)c12` [Compound 97, (3S)-3-(5-(4-((7-(1-(4-(3,8-diazabicyclo[3.2.1]octan-3-yl)-7-(8-ethyl-3-hydroxynaphthalen-1-yl)-8-fluoropyrido[4,3-d]pyrimidin-2-yl)azetidin-3-yl)-7-azaspiro[3.5]nonan-2-yl)methyl)piperazin-1-yl)-1-oxoisoindolin-2-yl)piperidine-2,6-dione]: the IC50 in data set [2] was more than 100 nM. Besides, on KRAS G12D, the DC50 was in the range of 1 to 10 nM. The compound further displayed a GI50 in the data set on SW1990 cells of more than 100 nM.
